Measurements published in patent publication US8124655B2, “Use of LR-90 and LR-102 to overcome insulin resistance” (City of Hope, priority 2007, dated 2012).

Key:
[1] = test system: Zucker diabetic fatty (ZDF) rat; assay: Renal function: urinary albumin and total protein excretion, kidney weights (Example 1); format: in vivo
Procedure: (§1) All animal studies were carried out in compliance with policies outlined in The Guide for the Care and Handling of Laboratory Animals (NIH Publication No. 85-23) that have been approved by the City of Hope Animal Care Committee. Male ZDF (fa/fa) and male Zucker lean (+/+; ZL) rats were obtained at the age of 5 weeks from Charles River Laboratories (Wilmington, Mass., USA). Animals were maintained with free access to Purina 5008 rat chow (Purina Mills, St Louis, Mo., USA) and tap water. All animals were individually housed in a controlled room with a 12 h dark-light cycle. At the age of 13 weeks, the animals were divided into the following groups: (1) ZL rats (n=6); (2) ZDF rats without treatment (n=6); and (3) ZDF rats treated with LR-90 at 50 mg/l in their drinking water (ZDF90, n=6). The dose of LR-90 was chosen after previous experiments with type 1 diabetic nephropathy. Food, water intake, body weight and blood glucose levels were monitored periodically. Systolic blood pressure was measured by tail-cuff plethysmography (CODA2 Blood Pressure System; Kent Scientific, Torrington, Conn., USA). Animals were killed at the age of 40 weeks by over-anaesthetisation with isoflurane and cardiac puncture. Blood samples were collected from each animal and transferred accordingly into heparinised vacutainer tubes; they were later centrifuged (1,500×g for 10 min at 4° C.) for plasma isolation. The kidneys were removed immediately, rinsed in PBS and weighed, after which specimens were snap-frozen in liquid nitrogen or fixed in 10% (vol./vol.) neutral buffered formalin for further biochemical and histological analyses. Plasma glucose, lipids and Nε-(carboxymethyl)lysine-AGE Plasma glucose was measured using a glucose analyzer (2300 STAT; YSI, Yellowsprings, Ohio, USA). Total plasma triacylglycerol and cholesterol concentrations were quantified using the Vitros 250 Chemistry System (Johnson & Johnson, Rochester, N.Y., USA). Nε-(Carboxymethyl)lysine (CML)-AGE was liberated from plasma proteins by acid hydrolysis and then measured by ion-pair reversed-phase liquid chromatography/tandem mass spectrometry as described previously.
Renal function was assessed by measuring urinary albumin and total protein excretion. Prior to killing, rats were housed in metabolism cages for 24 h urine collection. Urinary albumin was quantified using the Nephrat kit according to manufacturer's instructions. Total urinary protein was measured using a kit (DC Assay; Bio-Rad Laboratories, Hercules, Calif., USA).

[2] = test system: Zucker diabetic fatty (ZDF) rat; assay: Metabolic parameters of ZDF rats treated with LR-90 (Example 1); format: in vivo
Procedure: As noted, previous studies have shown that LR-90, a new inhibitor of AGE formation, prevented the development of experimental type 1 diabetic nephropathy. In the present Example, the effects of LR-90 were examined in the Zucker diabetic fatty (ZDF) rat, a model of type 2 diabetes and metabolic syndrome, and the mechanisms by which it may protect against renal injury were investigated. In this Example, male ZDF rats were treated without or with LR-90 from age 13 to 40 weeks. Metabolic and kidney functions and renal histology were evaluated. AGE accumulation and the production of the receptor for AGE (AGER) were measured. Profibrotic growth factors, extracellular matrix proteins and intracellular signalling pathways associated with glomerular and tubular damage were also analysed. […] RenalAGE, AGER and lipid peroxidation were all attenuated by LR-90. […] This was associated with reduction in glomerulosclerosis and tubulointerstitial fibrosis, concomitant with marked inhibition of renal overproduction of TGF-β1, connective tissue growth factor, fibronectin and collagen IV.
as §1

[3] = ZDF rats, LR-90 50 mg/l in drinking water, at 40 weeks of age, mean ± SEM

Structure (SMILES): CC(C)(Oc1ccc(NC(=O)Nc2ccc(Cc3ccc(NC(=O)Nc4ccc(OC(C)(C)C(=O)O)cc4)c(Cl)c3)cc2Cl)cc1)C(=O)O [LR-90, methylene bis[4,4′-(2-chlorophenylureidophenoxyisobutyric acid)]]
- Mean Kidney Weights [1, 3]: 4.23 ± 0.27 g
- Relative Kidney Weights [1, 3]: 12.23 ± 0.78 g/kg
- Total Urinary Protein [1, 3]: 176.4 ± 43.3 mg/24 h
- Urinary Albumin [1, 3]: 25.8 ± 4.8 mg/24 h
- Urine Volume [1, 3]: 137 ± 24 mL/day
- prevention of increase in total urinary protein ([1]; vs untreated ZDF rats, p<0.01): 67%
- prevention of increase in urinary albumin ([1]; vs untreated ZDF rats, p<0.05): 42%
- effect on blood pressure ([2]; ZDF rats, Example 1): modest, but not statistically significant effects
- effect on hyperglycaemia ([2]; ZDF rats, Example 1): modest, but not statistically significant effects
- Plasma Cholesterol [2, 3]: 6.3 ± 0.3 mmol/L
- Plasma Triglycerides [2, 3]: 4.4 ± 0.6 mmol/L
- Plasma glucose [2, 3]: 25.0 ± 2.3 mmol/L
- Mean Systolic BP ([2]; ZDF rats, LR-90 50 mg/l in drinking water, at 40 weeks of age, tail-cuff, mean ± SEM): 144 ± 6 mm Hg
- reduction of plasma cholesterol ([2]; vs untreated ZDF rats, p<0.05): ~30%
- reduction of plasma triacylglycerol ([2]; vs untreated ZDF rats, p<0.05): ~55%
